Experimental data taken from PubChem BioAssay AID1919009 (Molecular Pharmacology Branch, DTP, NCI, 2023).

System: K24384-001-R-PDC complex spheroid growth
Assay: Anticancer human tumor K24384-001-R-PDC patient-derived pancreatic adenocarcinoma cell line growth inhibition [AhR]
Conditions: for IC50: curve of first compound; for viability, T/C: stronger effect = lower value
In short: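 Spheroids combined tumor cells with HUVEC endothelial cells and human MSCs as stroma. AhR antagonists were paired with standard or investigational drugs, each dosed in half-log steps down from near clinical Cmax, or from 10 microM where Cmax was unknown.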
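For viability, T/C in this document: percent of DMSO vehicle-treated spheroid viability set as 100%.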

IC50 (second compound 0.1 µM): 10.7 nM
IC50 (second compound 0.316 µM): 9.9 nM
IC50 (second compound 1 µM): 11.2 nM
IC50 (second compound 3.16 µM): 9.78 nM
IC50 (second compound 10 µM): 10.5 nM
Structure (SMILES): CC(C)CC(NC(=O)C(Cc1ccccc1)NC(=O)c1cnccn1)B(O)O (stereo not given) + Cc1ccccc1N=Nc1ccc(NC(=O)c2ccnn2C)c(C)c1
viability, T/C (second compound 0.1 µM, first compound 0.000949 µM): 106%
viability, T/C (second compound 0.1 µM, first compound 0.003 µM): 90%
viability, T/C (second compound 0.1 µM, first compound 0.00949 µM): 57.3%
viability, T/C (second compound 0.1 µM, first compound 0.03 µM): 1.13%
viability, T/C (second compound 0.1 µM, first compound 0.0949 µM): 0.15%
viability, T/C (second compound 0.1 µM, first compound 0.3 µM): 0.42%
viability, T/C (second compound 0.316 µM, first compound 0.000949 µM): 95.3%
viability, T/C (second compound 0.316 µM, first compound 0.003 µM): 76.8%
viability, T/C (second compound 0.316 µM, first compound 0.00949 µM): 54%
viability, T/C (second compound 0.316 µM, first compound 0.03 µM): 1.07%
viability, T/C (second compound 0.316 µM, first compound 0.0949 µM): 0.38%
viability, T/C (second compound 0.316 µM, first compound 0.3 µM): 0.33%
viability, T/C (second compound 1 µM, first compound 0.000949 µM): 104%
viability, T/C (second compound 1 µM, first compound 0.003 µM): 79.5%
viability, T/C (second compound 1 µM, first compound 0.00949 µM): 60.4%
viability, T/C (second compound 1 µM, first compound 0.03 µM): 1.14%
viability, T/C (second compound 1 µM, first compound 0.0949 µM): 0.44%
viability, T/C (second compound 1 µM, first compound 0.3 µM): 0.38%
viability, T/C (second compound 3.16 µM, first compound 0.000949 µM): 83.9%
viability, T/C (second compound 3.16 µM, first compound 0.003 µM): 102%
viability, T/C (second compound 3.16 µM, first compound 0.00949 µM): 51.3%
viability, T/C (second compound 3.16 µM, first compound 0.03 µM): 1.31%
viability, T/C (second compound 3.16 µM, first compound 0.0949 µM): 0.31%
viability, T/C (second compound 3.16 µM, first compound 0.3 µM): 0.48%
viability, T/C (second compound 10 µM, first compound 0.000949 µM): 97.4%
viability, T/C (second compound 10 µM, first compound 0.003 µM): 115%
viability, T/C (second compound 10 µM, first compound 0.00949 µM): 54.7%
viability, T/C (second compound 10 µM, first compound 0.03 µM): 2.19%
viability, T/C (second compound 10 µM, first compound 0.0949 µM): 1.72%
viability, T/C (second compound 10 µM, first compound 0.3 µM): 0.66%
